Assay results as given in ChEMBL document CHEMBL5653615 (J Biol Chem, 2013).
Values belong to the molecule of their own block, whether it stands above or below them.

Experiments:
[1] = molecular target: Platelet-derived growth factor receptor beta (Homo sapiens) (UniProt P09619); experiment: Inhibition of human PDGFRb at 500 nM by HotSpot assay relative to control
[2] = molecular target: T1, Serine/threonine-protein kinase A-Raf (Homo sapiens) (UniProt P10398); experiment: Inhibition of human ARAF at 18.6 nM by HotSpot assay relative to control
T1 sequence (whole entry): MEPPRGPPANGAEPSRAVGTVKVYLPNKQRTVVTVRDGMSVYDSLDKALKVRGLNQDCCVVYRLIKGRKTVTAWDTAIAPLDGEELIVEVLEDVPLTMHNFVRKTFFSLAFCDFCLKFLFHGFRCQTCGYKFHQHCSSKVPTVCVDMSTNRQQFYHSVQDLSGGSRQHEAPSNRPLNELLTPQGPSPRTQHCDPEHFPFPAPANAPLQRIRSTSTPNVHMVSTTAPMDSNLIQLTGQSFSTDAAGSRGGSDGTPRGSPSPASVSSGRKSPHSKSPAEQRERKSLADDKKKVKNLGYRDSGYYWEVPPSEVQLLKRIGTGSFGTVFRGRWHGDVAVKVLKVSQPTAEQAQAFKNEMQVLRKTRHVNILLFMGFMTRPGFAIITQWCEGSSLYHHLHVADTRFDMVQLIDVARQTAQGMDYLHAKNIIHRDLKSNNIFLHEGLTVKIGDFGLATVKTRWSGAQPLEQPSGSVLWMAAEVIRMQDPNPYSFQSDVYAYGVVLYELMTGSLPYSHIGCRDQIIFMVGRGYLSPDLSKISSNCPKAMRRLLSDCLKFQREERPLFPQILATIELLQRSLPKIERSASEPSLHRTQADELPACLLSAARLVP

[3] = molecular target: Calcium/calmodulin-dependent protein kinase type II subunit delta (Homo sapiens) (UniProt Q13557); experiment: Inhibition of human CAMK2d at 18.6 nM by HotSpot assay relative to control
Calcium/calmodulin-dependent protein kinase type II subunit delta (Homo sapiens), sequence (Q13557 whole entry): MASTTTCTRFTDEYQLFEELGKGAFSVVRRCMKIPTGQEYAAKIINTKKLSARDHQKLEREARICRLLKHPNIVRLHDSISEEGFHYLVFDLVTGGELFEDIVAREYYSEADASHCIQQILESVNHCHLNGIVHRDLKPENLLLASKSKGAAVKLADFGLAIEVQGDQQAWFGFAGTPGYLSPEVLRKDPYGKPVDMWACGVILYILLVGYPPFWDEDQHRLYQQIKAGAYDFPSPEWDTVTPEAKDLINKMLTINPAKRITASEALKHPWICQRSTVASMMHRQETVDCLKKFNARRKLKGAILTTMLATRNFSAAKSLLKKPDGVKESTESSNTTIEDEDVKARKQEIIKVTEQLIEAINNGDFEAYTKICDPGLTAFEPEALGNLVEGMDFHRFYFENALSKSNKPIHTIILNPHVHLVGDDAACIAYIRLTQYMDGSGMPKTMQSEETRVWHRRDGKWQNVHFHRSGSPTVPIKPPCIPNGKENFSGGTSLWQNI

[4] = molecular target: Mitogen-activated protein kinase 9 (Homo sapiens) (UniProt P45984); experiment: Inhibition of human JNK2 at 18.6 nM by HotSpot assay relative to control
[5] = molecular target: Macrophage-stimulating protein receptor (Homo sapiens) (UniProt Q04912); experiment: Inhibition of human MST1R at 18.6 nM by HotSpot assay relative to control
[6] = molecular target: STE20-like serine/threonine-protein kinase (Homo sapiens) (UniProt Q9H2G2); experiment: Inhibition of human STK2 at 18.6 nM by HotSpot assay relative to control
STE20-like serine/threonine-protein kinase (Homo sapiens), sequence (Q9H2G2 whole entry, looked up): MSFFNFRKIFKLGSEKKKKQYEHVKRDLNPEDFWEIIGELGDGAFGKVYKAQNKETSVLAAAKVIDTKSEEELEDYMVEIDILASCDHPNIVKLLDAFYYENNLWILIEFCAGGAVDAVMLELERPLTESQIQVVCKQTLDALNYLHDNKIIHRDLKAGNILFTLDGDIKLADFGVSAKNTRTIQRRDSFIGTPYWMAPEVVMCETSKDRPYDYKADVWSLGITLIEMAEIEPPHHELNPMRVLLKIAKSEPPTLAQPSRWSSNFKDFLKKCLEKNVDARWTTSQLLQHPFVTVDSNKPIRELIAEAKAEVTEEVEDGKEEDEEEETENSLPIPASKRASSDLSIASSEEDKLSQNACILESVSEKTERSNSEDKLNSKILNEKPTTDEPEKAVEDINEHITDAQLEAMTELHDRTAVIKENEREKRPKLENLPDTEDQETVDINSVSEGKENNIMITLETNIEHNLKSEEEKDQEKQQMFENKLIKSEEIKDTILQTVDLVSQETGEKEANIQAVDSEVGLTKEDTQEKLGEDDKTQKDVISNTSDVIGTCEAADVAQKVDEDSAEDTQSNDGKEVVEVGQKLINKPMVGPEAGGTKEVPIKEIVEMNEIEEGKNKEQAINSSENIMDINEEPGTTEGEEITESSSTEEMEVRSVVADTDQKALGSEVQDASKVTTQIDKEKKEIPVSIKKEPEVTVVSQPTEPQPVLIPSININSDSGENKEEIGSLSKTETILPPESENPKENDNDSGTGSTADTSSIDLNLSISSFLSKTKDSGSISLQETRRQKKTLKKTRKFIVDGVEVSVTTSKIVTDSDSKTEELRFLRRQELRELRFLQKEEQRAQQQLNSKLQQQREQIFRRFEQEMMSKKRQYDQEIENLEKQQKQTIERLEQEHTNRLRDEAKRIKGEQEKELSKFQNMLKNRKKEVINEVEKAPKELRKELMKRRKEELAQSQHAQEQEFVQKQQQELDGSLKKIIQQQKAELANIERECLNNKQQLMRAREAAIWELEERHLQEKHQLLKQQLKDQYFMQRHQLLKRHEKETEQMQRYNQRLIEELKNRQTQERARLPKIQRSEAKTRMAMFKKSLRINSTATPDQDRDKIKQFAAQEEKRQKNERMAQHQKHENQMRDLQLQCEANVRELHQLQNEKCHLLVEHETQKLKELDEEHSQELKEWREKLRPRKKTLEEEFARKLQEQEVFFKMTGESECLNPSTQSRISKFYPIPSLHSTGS

[7] = molecular target: T2, Serine/threonine-protein kinase TAO1 (Homo sapiens) (UniProt Q7L7X3); experiment: Inhibition of human TAOK1 at 18.6 nM by HotSpot assay relative to control
T2 sequence (whole entry): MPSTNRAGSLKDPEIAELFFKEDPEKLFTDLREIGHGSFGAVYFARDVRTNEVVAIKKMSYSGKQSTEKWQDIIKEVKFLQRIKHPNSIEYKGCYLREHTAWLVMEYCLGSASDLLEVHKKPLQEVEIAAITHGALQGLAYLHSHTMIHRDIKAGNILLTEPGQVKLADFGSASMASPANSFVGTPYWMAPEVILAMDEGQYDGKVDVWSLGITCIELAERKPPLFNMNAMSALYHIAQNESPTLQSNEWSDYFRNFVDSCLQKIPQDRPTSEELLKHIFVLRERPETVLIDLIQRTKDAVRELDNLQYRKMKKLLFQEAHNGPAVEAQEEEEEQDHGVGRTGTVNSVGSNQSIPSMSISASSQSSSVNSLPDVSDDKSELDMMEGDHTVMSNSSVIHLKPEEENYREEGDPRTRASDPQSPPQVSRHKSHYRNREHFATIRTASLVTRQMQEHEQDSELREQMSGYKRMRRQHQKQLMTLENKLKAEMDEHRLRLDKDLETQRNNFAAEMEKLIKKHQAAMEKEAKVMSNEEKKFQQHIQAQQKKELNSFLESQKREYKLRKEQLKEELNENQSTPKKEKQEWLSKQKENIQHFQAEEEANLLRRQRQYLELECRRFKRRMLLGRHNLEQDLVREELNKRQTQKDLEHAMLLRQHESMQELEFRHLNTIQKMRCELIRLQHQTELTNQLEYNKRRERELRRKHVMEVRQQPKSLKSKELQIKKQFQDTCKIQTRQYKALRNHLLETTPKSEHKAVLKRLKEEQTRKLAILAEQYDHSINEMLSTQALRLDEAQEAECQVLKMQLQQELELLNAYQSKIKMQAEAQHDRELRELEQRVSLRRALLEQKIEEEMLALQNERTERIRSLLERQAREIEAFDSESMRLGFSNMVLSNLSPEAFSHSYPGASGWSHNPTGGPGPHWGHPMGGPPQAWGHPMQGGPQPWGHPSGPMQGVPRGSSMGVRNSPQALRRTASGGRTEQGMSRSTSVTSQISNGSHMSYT

[8] = molecular target: Insulin-like growth factor 1 receptor (Homo sapiens, UniProt P08069); conditions: dose 18.6 nM
Description: Inhibition of human IGF1R at 18.6 nM by HotSpot assay relative to control

[9] = molecular target: Tyrosine-protein kinase ABL2 (Homo sapiens) (UniProt P42684); experiment: Inhibition of human ABL2 at 1.82 nM by HotSpot assay relative to control
Tyrosine-protein kinase ABL2 (Homo sapiens), sequence (P42684 whole entry): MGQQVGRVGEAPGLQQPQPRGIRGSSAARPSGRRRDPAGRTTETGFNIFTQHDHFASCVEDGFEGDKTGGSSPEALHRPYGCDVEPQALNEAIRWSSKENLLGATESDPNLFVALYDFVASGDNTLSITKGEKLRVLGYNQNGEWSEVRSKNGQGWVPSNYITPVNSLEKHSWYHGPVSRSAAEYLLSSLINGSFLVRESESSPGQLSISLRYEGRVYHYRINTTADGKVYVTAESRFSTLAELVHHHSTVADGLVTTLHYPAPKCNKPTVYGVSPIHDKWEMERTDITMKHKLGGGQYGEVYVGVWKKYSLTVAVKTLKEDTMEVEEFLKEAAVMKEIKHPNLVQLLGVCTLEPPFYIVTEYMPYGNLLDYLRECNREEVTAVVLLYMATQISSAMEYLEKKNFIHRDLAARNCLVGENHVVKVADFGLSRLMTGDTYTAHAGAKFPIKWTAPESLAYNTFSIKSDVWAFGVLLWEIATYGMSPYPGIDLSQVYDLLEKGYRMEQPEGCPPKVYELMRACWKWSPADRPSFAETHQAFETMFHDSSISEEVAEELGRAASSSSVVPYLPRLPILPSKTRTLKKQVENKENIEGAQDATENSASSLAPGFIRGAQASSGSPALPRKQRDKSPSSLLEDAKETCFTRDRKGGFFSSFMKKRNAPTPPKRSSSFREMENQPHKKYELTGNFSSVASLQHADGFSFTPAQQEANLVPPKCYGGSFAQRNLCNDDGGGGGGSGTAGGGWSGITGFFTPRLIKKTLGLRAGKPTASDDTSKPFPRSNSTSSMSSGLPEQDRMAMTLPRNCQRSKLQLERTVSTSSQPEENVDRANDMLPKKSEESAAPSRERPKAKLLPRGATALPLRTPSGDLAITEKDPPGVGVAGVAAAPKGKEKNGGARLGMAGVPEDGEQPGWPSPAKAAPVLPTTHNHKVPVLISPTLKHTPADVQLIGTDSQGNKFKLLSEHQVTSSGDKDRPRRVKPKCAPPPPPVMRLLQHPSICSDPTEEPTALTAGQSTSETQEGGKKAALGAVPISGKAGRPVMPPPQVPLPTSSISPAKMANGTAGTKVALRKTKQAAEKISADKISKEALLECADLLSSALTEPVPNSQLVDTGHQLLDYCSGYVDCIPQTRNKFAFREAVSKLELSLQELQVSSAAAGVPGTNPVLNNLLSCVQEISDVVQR

[10] = molecular target: CDK4/Cyclin D3 (Homo sapiens) (UniProt P11802+P30281); experiment: Inhibition of human CDK4/cyclin D3 at 1.82 nM by HotSpot assay relative to control; assay type: protein-complex assay
[11] = molecular target: Focal adhesion kinase 1 (Homo sapiens) (UniProt Q05397); experiment: Inhibition of human FAK at 1.82 nM by HotSpot assay relative to control
Focal adhesion kinase 1 (Homo sapiens), sequence (Q05397 2-1052 limits assumed): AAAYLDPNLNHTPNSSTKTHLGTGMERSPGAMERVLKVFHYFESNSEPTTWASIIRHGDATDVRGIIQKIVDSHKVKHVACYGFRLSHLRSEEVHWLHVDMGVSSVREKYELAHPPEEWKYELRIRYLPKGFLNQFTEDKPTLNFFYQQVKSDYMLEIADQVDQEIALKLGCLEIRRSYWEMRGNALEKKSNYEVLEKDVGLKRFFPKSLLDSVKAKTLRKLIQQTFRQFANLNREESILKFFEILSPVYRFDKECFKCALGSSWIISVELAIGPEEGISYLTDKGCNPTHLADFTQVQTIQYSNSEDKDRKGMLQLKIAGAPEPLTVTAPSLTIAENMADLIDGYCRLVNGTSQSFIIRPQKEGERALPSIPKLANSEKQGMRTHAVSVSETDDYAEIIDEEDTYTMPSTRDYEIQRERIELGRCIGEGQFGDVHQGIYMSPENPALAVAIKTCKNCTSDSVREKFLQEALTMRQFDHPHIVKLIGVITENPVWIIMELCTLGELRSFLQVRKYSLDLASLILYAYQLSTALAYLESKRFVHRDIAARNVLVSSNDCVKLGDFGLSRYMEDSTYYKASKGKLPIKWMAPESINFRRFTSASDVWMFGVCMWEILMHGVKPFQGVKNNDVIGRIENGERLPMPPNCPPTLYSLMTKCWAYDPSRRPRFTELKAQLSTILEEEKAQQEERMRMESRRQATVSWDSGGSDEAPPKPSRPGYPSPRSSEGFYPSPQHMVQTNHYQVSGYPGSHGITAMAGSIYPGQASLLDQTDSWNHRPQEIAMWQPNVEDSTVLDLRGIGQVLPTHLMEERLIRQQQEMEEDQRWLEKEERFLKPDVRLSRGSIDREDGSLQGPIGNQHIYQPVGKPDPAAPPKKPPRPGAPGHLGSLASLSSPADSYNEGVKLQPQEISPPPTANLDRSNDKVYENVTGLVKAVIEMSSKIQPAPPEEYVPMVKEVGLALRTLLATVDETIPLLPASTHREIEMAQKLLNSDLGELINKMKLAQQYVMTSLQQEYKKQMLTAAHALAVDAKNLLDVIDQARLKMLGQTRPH

[12] = molecular target: T3, Serine/threonine-protein kinase Nek2 (Homo sapiens) (UniProt P51955); experiment: Inhibition of human NEK2 at 1.82 nM by HotSpot assay relative to control
T3 sequence (whole entry): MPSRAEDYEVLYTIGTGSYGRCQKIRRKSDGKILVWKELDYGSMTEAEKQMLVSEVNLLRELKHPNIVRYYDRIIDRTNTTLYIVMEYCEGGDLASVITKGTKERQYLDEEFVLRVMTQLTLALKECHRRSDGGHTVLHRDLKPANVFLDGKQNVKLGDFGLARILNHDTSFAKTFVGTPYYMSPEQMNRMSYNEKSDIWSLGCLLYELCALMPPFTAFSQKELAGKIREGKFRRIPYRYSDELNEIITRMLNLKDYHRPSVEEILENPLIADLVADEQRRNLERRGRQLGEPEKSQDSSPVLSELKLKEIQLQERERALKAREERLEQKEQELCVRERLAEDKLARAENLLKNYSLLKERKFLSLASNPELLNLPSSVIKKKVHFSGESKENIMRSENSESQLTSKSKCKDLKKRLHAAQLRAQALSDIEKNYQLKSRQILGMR

[13] = molecular target: Protein kinase C eta type (Homo sapiens) (UniProt P24723); experiment: Inhibition of human PKCeta at 1.82 nM by HotSpot assay relative to control
[14] = molecular target: SRSF protein kinase 1 (Homo sapiens) (UniProt Q96SB4); experiment: Inhibition of human SRPK1 at 1.82 nM by HotSpot assay relative to control

Platelet-derived growth factor receptor beta (Homo sapiens), sequence (P09619 whole entry): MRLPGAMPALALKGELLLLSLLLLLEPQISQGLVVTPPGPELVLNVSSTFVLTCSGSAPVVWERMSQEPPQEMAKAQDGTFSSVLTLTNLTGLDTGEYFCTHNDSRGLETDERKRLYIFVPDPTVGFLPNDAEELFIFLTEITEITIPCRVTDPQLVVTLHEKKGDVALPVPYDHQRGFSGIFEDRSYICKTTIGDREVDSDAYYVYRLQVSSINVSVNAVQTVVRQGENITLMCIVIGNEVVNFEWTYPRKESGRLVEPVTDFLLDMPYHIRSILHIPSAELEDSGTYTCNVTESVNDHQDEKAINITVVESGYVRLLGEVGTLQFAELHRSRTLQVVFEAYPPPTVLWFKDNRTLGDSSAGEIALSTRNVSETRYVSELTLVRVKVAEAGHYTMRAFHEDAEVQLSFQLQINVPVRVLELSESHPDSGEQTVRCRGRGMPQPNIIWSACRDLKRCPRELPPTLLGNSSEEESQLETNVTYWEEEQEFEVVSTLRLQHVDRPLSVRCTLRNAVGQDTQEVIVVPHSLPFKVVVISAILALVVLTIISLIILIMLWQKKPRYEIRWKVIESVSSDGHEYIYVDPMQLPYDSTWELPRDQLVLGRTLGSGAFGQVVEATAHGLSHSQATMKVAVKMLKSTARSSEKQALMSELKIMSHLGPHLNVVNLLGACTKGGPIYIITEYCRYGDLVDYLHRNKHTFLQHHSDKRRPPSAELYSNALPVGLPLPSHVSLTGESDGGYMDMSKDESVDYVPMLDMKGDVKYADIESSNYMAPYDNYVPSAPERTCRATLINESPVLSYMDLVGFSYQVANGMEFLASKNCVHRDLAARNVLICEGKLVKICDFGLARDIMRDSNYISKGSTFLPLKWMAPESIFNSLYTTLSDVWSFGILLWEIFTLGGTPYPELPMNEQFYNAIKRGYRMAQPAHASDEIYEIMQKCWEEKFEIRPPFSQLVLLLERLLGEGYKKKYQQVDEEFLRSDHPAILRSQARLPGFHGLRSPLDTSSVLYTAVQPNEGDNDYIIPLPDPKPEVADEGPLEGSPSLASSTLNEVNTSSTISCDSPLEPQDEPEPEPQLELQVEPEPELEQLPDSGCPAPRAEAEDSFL

Compound: Oc1n[nH]c2nnc(-c3c(-c4ccccc4)nn4ccccc34)cc12
inhibition [1]: -0.46%

inhibition [2]: 5.16% | inhibition [3]: 0.37% | inhibition [4]: -2.37% | inhibition [5]: 0.1% | inhibition [6]: 9.03% | inhibition [7]: 0.77% | inhibition [8]: 66.3%
Compound: C[C@]1(O)C[C@@H](c2nc(-c3ccc4ccc(-c5ccccc5)nc4c3)c3c(N)nccn32)C1

inhibition [9]: -4.72% | inhibition [10]: -0.76% | inhibition [11]: 1.65% | inhibition [12]: 0.74% | inhibition [13]: -0.87% | inhibition [14]: -4.32%
Compound: C[C@@]1(C(=O)Nc2ccc(F)nc2)CCCN1c1nc(Nc2cc(C3CC3)n[nH]2)c2cccn2n1
